Data: ChEMBL document CHEMBL1147770, “Design, synthesis and structure-activity relationships of new phosphinate inhibitors of MurD” (Bioorg Med Chem Lett, 2006)

target: T1, UDP-N-acetylmuramoylalanine--D-glutamate ligase (Escherichia coli K-12) (UniProt P14900); test: Residual activity of MurD from Escherichia coli at 1 mM
T1 sequence (whole entry): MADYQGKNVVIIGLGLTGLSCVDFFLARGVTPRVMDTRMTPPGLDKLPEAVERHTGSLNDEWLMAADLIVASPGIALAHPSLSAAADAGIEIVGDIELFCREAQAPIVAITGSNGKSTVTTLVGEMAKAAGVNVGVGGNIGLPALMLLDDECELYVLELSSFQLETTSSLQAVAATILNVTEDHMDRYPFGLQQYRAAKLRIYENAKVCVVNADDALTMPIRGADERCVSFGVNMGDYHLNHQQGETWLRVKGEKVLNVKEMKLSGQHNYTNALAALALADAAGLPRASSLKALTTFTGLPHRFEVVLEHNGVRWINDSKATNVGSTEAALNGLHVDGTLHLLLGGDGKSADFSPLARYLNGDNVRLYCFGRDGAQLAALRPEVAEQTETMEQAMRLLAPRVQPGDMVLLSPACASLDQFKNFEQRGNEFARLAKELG

Activity | Structure (SMILES)
91% | CC(NC(=O)/C=C/c1ccc2c(c1)OCO2)P(=O)(O)CCC(=O)O (configuration not stated)
47% | CC(NS(=O)(=O)Cc1ccc([N+](=O)[O-])cc1)P(=O)(O)CC(CCC(=O)O)C(=O)O (configuration not stated)
28% | CC(NC(=O)/C=C/c1ccccc1)P(=O)(O)CC(CCC(=O)O)C(=O)O (configuration not stated)
66% | CC(C)C(NC(=O)OCc1ccccc1)P(=O)(O)CC(CCC(=O)O)C(=O)O (configuration not stated)
50% | CC(NS(=O)(=O)Cc1ccc(C(F)(F)F)cc1)P(=O)(O)CC(CCC(=O)O)C(=O)O (configuration not stated)
83% | CCC(C)C(NC(=O)OCc1ccccc1)P(=O)(O)CC(CCC(=O)O)C(=O)O (configuration not stated)
54% | CC(NS(=O)(=O)c1ccccc1)P(=O)(O)CC(CCC(=O)O)C(=O)O (configuration not stated)
40% | CC(NS(=O)(=O)Cc1ccccc1)P(=O)(O)CC(CCC(=O)O)C(=O)O (configuration not stated)
44% | CC(NC(=O)[C@@H](C)NC(=O)Cc1ccc2c(c1)OCO2)P(=O)(O)CC(CCC(=O)O)C(=O)O (some centres not stated)
23% | CC(NC(=O)/C=C/c1cccc(O)c1)P(=O)(O)CC(CCC(=O)O)C(=O)O (configuration not stated)
41% | CC(NC(=O)OCc1ccccc1)P(=O)(O)CC(CCC(=O)O)C(=O)O (configuration not stated)
22% | CC(NS(=O)(=O)Cc1cccc([N+](=O)[O-])c1)P(=O)(O)CC(CCC(=O)O)C(=O)O (configuration not stated)
49% | CC(NS(=O)(=O)Cc1cccc(C(F)(F)F)c1)P(=O)(O)CC(CCC(=O)O)C(=O)O (configuration not stated)
52% | CC(NS(=O)(=O)c1cccc([N+](=O)[O-])c1)P(=O)(O)CC(CCC(=O)O)C(=O)O (configuration not stated)
30% | CC(NS(=O)(=O)Cc1ccccc1[N+](=O)[O-])P(=O)(O)CC(CCC(=O)O)C(=O)O (configuration not stated)
65% | CC(C)CC(NC(=O)OCc1ccccc1)P(=O)(O)CC(CCC(=O)O)C(=O)O (configuration not stated)
37% | CC(NS(=O)(=O)Cc1ccc(F)cc1Cl)P(=O)(O)CC(CCC(=O)O)C(=O)O (configuration not stated)
92% | CC(NC(=O)OCc1ccccc1)P(=O)(O)CCC(=O)O (configuration not stated)
36% | CC(NC(=O)Cc1ccc2c(c1)OCO2)P(=O)(O)CC(CCC(=O)O)C(=O)O (configuration not stated)
19% | CC(NC(=O)[C@@H](C)NS(=O)(=O)Cc1cccc([N+](=O)[O-])c1)P(=O)(O)CC(CCC(=O)O)C(=O)O (some centres not stated)
8% | CC(NC(=O)[C@@H](C)NS(=O)(=O)Cc1ccc([N+](=O)[O-])cc1)P(=O)(O)CC(CCC(=O)O)C(=O)O (some centres not stated)
55% | CC(NS(=O)(=O)c1ccc2ccccc2c1)P(=O)(O)CC(CCC(=O)O)C(=O)O (configuration not stated)
100% | CC(NC(=O)[C@H](C)NS(=O)(=O)Cc1ccc([N+](=O)[O-])cc1)P(=O)(O)CCC(=O)O (some centres not stated)

target: T2, UDP-N-acetylmuramoylalanine--D-glutamate ligase (Escherichia coli K-12, UniProt P14900); test: Inhibitory activity against MurD from Escherichia coli
T2 sequence (P14900 whole entry): T1 sequence (whole entry)

IC50 | Structure (SMILES)
432 µM | CC(NC(=O)/C=C/c1ccccc1)P(=O)(O)CC(CCC(=O)O)C(=O)O (configuration not stated)
95 µM | CC(NC(=O)/C=C/c1ccc2c(c1)OCO2)P(=O)(O)CC(CCC(=O)O)C(=O)O (configuration not stated)
78 µM | CC(NC(=O)[C@@H](C)NS(=O)(=O)Cc1ccc([N+](=O)[O-])cc1)P(=O)(O)CC(CCC(=O)O)C(=O)O (some centres not stated)

target: T3, UDP-N-acetylmuramoylalanine--D-glutamate ligase (Streptococcus pneumoniae serotype 4 (strain ATCC BAA-334 / TIGR4), UniProt Q97RU8); test: Inhibitory activity against MurD from Streptococcus pneumoniae
T3 sequence (Q97RU8 whole entry): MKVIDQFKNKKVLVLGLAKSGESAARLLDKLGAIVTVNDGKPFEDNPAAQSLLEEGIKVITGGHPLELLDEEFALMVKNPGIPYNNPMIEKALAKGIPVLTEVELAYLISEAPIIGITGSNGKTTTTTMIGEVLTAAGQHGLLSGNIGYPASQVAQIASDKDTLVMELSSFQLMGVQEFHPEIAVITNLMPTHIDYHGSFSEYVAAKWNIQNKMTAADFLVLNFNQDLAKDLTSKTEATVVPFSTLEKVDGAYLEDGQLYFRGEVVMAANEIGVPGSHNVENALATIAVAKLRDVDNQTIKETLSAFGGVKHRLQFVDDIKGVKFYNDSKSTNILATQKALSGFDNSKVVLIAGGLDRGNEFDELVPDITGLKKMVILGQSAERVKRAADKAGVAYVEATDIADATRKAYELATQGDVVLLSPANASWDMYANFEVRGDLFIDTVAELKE

IC50 | Structure (SMILES)
100 µM | CC(NC(=O)OCc1ccccc1)P(=O)(O)CC(CCC(=O)O)C(=O)O (configuration not stated)
